The subject of assay [1] is trained sensory panel. Nature of the assay: Taste recognition thresholds for kokumi/mouthfulness enhancement, duo-trio tests in chanterelle flavor recombinant. The following applies: for Kokumi threshold: in recombinant chanterelle flavor, pH 5.8, duo-trio test; for Kokumi effect (in words): vis-à-vis recombinant chanterelle flavor. Type of assay: in vivo, human. The procedure: An artificial chanterelle flavor recombinant was used as a reference flavor for determining the flavor-enhancing effect of the compounds to be tested. The pH value was adjusted to 5.8 with trace amounts of formic acid: Seventeen trained assessors (ten women and seven men, ages 23-30) were recruited from the Chair of Food Chemistry and Molecular Sensory Science (TUM). The sensory sessions were performed at 22° C. in air-conditioned sensory booths. To prevent cross-modal interactions with odorants, the panelists used nose-clips. Furthermore the light in the sensory booths was adjusted to yellow in order to eliminate optical differences between the samples. The taste threshold concentrations of the purified compounds were determined in the above-described chanterelle flavor recombinant using duo-trio-tests. The pH value of the individual samples and blanks was adjusted to 5.8 by adding trace amounts of formic acid. The samples were presented in serial 1:2 dilutions in order of increasing concentrations to the trained panel and the panelists were asked to mark the sample differing from the recombinant which was used as constant reference (one sample was identical to the reference, one sample was different). The threshold value of the sensory panel was approximated by averaging the threshold values of the individual panelists in two independent sessions.

For assay [2], the system named is trained sensory panel. Nature of the assay: Intrinsic taste recognition thresholds, three-alternative forced choice tests in 1% ethanol. The following applies: in 1% ethanol/water; for Intrinsic taste quality: taste recognized at threshold; for Intrinsic taste threshold: three-alternative forced choice. It is filed as in vivo, human. On the procedure: Seventeen trained assessors (ten women and seven men, ages 23-30) were recruited from the Chair of Food Chemistry and Molecular Sensory Science (TUM). The sensory sessions were performed at 22° C. in air-conditioned sensory booths. To prevent cross-modal interactions with odorants, the panelists used nose-clips. Furthermore the light in the sensory booths was adjusted to yellow in order to eliminate optical differences between the samples. The human recognition thresholds for the intrinsic taste of the purified compounds were determined by means of three-alternative forced choice tests in 1% ethanol. Serial 1:2 dilutions of the sample were presented in order of increasing concentrations to the panelists using the sip-and-spit-method. The geometric mean of the last and the next-to-last concentrations were calculated and taken as the individual recognition threshold. The threshold values evaluated in two different sessions were averaged.

Molecules are shown by their SMILES. “Also recorded” adds a separate entry of the source.

As to `CCCCCC/C=C/C#CCCCCCCCC(=O)O` [ximenynic acid, 11E-octadecen-9-ynoic acid, reference compound], the Kokumi threshold in the assay on trained sensory panel [1] turned out to be 84 µmol/L. Also, in the assay on trained sensory panel [2], the Intrinsic taste quality entry is “[bitter]” and the Intrinsic taste threshold stood at 482 µmol/L.
With `CC/C=C/C(=O)C#CC/C=C\CCCCCCCC(=O)OC` [Compound 9, (9Z,15E)-14-oxo-9,15-octadecadien-12-ynoic acid methyl ester], the Kokumi threshold in the assay with trained sensory panel [1] came out at 59 µmol/L.
For `CC/C=C/C(=O)C#CC/C=C\CCCCCCCC(=O)O` [Compound 5, (9Z,15E)-14-oxo-9,15-octadecadien-12-ynoic acid], the Kokumi threshold with trained sensory panel [1] was 19 µmol/L. Also, in the assay with trained sensory panel [2], the Intrinsic taste quality result is “[pungent]” and the Intrinsic taste threshold turned out to be 228 µmol/L.
With `O=C(O)CCCCCCC/C=C\C=C/CC(O)CCCCO` (stereo not drawn) [Compound 3, (9Z,11Z)-14,18-dihydroxyoctadeca-9,11-dienoic acid], the “Kokumi effect (in words)” value in the assay with trained sensory panel [1] is on record as “did not exhibit a kokumi effect; also recorded: do not exhibit a kokumi flavor”. Further, in the assay on trained sensory panel [2], the Intrinsic taste quality entry was “[bitter]” and the Intrinsic taste threshold was determined as 281 µmol/L.
On to `CCC/C=C\C#CC/C=C\CCCCCCCC(=O)O` [Compound 11, 14,15-dehydrocrepenynic acid], for which the Kokumi threshold in the assay on trained sensory panel [1] was 105 µmol/L. For the same molecule, in the assay on trained sensory panel [2], the Intrinsic taste quality entry was “[bitter]” and the Intrinsic taste threshold was 531 µmol/L.
In the case of `CCC/C=C\CC(O)/C=C/CCCCCCCCC(=O)O` (stereo not drawn) [Compound 8, (10E,14Z)-12-hydroxy-10,14-octadecadienoic acid], the “Kokumi effect (in words)” value in the assay on trained sensory panel [1] is reported as “did not exhibit a kokumi effect; also recorded: do not exhibit a kokumi flavor”. For the same molecule, in the assay on trained sensory panel [2], the Intrinsic taste quality entry is “[bitter]” and the Intrinsic taste threshold worked out at 297 µmol/L.
Consider `CCC/C=C\C#CC/C=C\CCCCCCCC(=O)OCC` [Compound 13, 14,15-dehydrocrepenynic acid ethyl ester], for which the Kokumi threshold with trained sensory panel [1] came out at 59 µmol/L. Also, in the assay with trained sensory panel [2], the Intrinsic taste quality entry was “[astringent]” and the Intrinsic taste threshold was found to be 512 µmol/L.
Take `O=C(O)CCCCCCC/C=C\CC#CC(O)/C=C/C(O)CO` (stereo not drawn) [Compound 1, (9Z,15E)-14,17,18-trihydroxy-9,15-octadecadien-12-ynoic acid]: in the assay on trained sensory panel [1], the Kokumi threshold stood at 59 µmol/L. Besides, the Intrinsic taste threshold in the assay with trained sensory panel [2] is greater than 1000 µmol/L.
Regarding `CCC/C=C\C#C/C=C/C(O)CCCCCCCC(=O)O` (stereo not drawn) [Compound 4, (10E,14Z)-9-hydroxy-10,14-octadecadien-12-ynoic acid], the Kokumi threshold with trained sensory panel [1] turned out to be 69 µmol/L. Further, in the assay with trained sensory panel [2], the Intrinsic taste quality entry was “[astringent]” and the Intrinsic taste threshold stood at 320 µmol/L.
For `CCC/C=C\C#C/C=C/C(CCCCCCCC(=O)O)OO` (stereo not drawn) [Compound 10, (10E,14Z)-9-hydroperoxy-10,14-octadecadien-12-ynoic acid] the same measures were 38 µmol/L, “[bitter]” and 536 µmol/L.
With `O=C(O)CCCCCCC/C=C\C=C/CC(O)CCC(O)CO` (stereo not drawn) [Compound 2, (9Z,11Z)-14,17,18-trihydroxy-9,11-octadecadienoic acid], the “Kokumi effect (in words)” value in the assay with trained sensory panel [1] is “did not exhibit a kokumi effect; also recorded: do not exhibit a kokumi flavor”. For the same molecule, in the assay with trained sensory panel [2], the Intrinsic taste quality entry is “[bitter]” and the Intrinsic taste threshold was determined as 331 µmol/L.
`CCC/C=C\C#CC/C=C\CCCCCCCC(=O)OC` [Compound 12, 14,15-dehydrocrepenynic acid methyl ester]: the Kokumi threshold with trained sensory panel [1] turned out to be 32 µmol/L. Besides, in the assay with trained sensory panel [2], the Intrinsic taste quality result was “[astringent]” and the Intrinsic taste threshold worked out at 648 µmol/L.
Take `CCC/C=C\C#C/C=C/C(=O)CCCCCCCC(=O)O` [Compound 6, (10E,14Z)-9-oxo-10,14-octadecadien-12-ynoic acid]: the Kokumi threshold in the assay on trained sensory panel [1] came to 79 µmol/L. In the assay with trained sensory panel [2], the Intrinsic taste quality entry was “[astringent]” and the Intrinsic taste threshold came to 639 µmol/L.
